For two molecules, inhibition and residual activity results are on record in ChEMBL document CHEMBL4507298 (2021).

The target of data set [1] is 5-hydroxytryptamine receptor 1B (Homo sapiens) (UniProt P28222). Briefly: 5-HT1B CEREP ligand profiling. To be noted: Compound concentration 10.0 uM.
For data set [2], the target named is 5-hydroxytryptamine receptor 1D (Homo sapiens) (UniProt P28221). The data set is described as follows: 5-HT1D CEREP ligand profiling. To be noted: Compound concentration 10.0 uM.
Chain of 5-hydroxytryptamine receptor 1D (Homo sapiens) (P28221 whole entry): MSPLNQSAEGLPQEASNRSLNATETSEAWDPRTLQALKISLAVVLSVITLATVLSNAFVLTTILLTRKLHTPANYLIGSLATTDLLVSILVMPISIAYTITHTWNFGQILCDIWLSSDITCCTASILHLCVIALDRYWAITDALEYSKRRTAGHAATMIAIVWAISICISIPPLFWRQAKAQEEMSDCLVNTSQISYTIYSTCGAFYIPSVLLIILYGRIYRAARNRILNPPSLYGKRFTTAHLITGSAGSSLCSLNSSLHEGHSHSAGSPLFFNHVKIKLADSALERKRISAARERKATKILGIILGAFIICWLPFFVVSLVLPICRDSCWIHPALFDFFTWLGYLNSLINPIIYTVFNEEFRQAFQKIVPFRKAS
In data set [3] the target is 5-hydroxytryptamine receptor 2B (Homo sapiens) (UniProt P41595). The data set is described as follows: 5-HT2B (h) (agonist site/DOI) CEREP ligand profiling. To be noted: Compound concentration 10.0 uM.
Data set [4] concerns the target 5-hydroxytryptamine receptor 7 (Homo sapiens) (UniProt P34969). Briefly: 5-HT7 (h) CEREP ligand profiling. The note with it: Compound concentration 10.0 uM.
In data set [5] the target is Adenosine receptor A2a (Homo sapiens) (UniProt P29274). The data set is described as follows: A2A (h) CEREP ligand profiling. To be noted: Compound concentration 10.0 uM.
Data set [6] deals with Adrenergic receptor alpha-1 (Homo sapiens) (UniProt P35348+P25100+P35368). Briefly: alpha 1 (non- selective) CEREP ligand profiling. It is filed as protein assay. To be noted: Compound concentration 10.0 uM.
For data set [7], the target named is C-X-C chemokine receptor type 4 (Homo sapiens) (UniProt P61073). The data set is described as follows: CXCR4 (h) CEREP ligand profiling. To be noted: Compound concentration 10.0 uM.
Data set [8] has as its target CYP2D6 (Homo sapiens, UniProt P10635). The data set is described as follows: CYP2D6 inhibition CEREP ligand profiling. To be noted: compound concentration 10 uM.
The target in data set [9] is Sodium-dependent dopamine transporter (Homo sapiens) (UniProt Q01959). Briefly: DA transporter (h) CEREP ligand profiling. To be noted: Compound concentration 10.0 uM.
Chain of Sodium-dependent dopamine transporter (Homo sapiens) (Q01959 whole entry): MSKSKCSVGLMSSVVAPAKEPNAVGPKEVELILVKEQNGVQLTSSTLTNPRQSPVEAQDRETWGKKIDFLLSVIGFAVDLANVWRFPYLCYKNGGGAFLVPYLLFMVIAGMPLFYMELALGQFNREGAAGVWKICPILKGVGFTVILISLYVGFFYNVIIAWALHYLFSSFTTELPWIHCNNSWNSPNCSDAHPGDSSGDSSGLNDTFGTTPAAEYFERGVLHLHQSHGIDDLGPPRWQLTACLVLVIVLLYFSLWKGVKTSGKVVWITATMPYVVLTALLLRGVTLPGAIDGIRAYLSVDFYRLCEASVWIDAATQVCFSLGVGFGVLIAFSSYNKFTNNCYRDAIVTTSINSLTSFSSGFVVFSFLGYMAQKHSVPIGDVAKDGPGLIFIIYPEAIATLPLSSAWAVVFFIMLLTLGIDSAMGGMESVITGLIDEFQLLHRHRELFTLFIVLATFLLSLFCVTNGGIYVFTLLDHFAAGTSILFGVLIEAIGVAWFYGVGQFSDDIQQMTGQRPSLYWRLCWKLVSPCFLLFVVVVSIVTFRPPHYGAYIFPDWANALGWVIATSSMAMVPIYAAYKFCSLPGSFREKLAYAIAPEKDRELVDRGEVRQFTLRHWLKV
Data set [10] deals with Sodium- and chloride-dependent GABA transporter 1 (Homo sapiens) (UniProt P30531). Briefly: GABA transporter CEREP ligand profiling. To be noted: Compound concentration 10.0 uM.
The target of data set [11] is T1, Muscarinic acetylcholine receptor M1 (Homo sapiens) (UniProt P11229).
T1 sequence (whole entry): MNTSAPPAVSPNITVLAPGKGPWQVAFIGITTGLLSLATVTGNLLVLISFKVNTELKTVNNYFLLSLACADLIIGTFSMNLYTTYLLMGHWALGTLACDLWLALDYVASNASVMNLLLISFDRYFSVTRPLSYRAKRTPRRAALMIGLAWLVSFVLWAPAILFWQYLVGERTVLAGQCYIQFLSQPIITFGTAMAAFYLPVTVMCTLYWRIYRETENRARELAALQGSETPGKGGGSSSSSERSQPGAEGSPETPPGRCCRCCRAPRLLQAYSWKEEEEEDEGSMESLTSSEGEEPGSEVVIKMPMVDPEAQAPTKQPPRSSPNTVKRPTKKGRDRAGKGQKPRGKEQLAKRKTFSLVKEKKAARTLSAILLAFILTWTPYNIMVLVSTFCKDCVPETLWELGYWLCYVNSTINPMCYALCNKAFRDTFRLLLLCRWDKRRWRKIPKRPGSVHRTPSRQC
The data set is described as follows: M1 (h) CEREP ligand profiling. The note with it: Compound concentration 10.0 uM.

In data set [12] the target is Muscarinic acetylcholine receptor M3 (Homo sapiens) (UniProt P20309). The data set is described as follows: M3 (h) CEREP ligand profiling. The note with it: Compound concentration 10.0 uM.
Data set [13] has as its target Substance-P receptor (Homo sapiens) (UniProt P25103). The data set is described as follows: NK1 (h) CEREP ligand profiling. The note with it: Compound concentration 10.0 uM.
Data set [14] concerns the target cGMP-dependent 3',5'-cyclic phosphodiesterase (Homo sapiens) (UniProt O00408). The data set is described as follows: PDE2 (h) CEREP ligand profiling. To be noted: Compound concentration 10.0 uM.
The target of data set [15] is Phosphodiesterase 6 (Homo sapiens) (UniProt Q13956+P18545+P35913+O43924+P16499+P51160). Briefly: PDE6 CEREP ligand profiling. It is filed as protein assay. To be noted: Compound concentration 10.0 uM.
In data set [16] the target is Tyrosine-protein kinase ABL1 (Homo sapiens) (UniProt P00519). The note with it: Compound concentration 1000.0 nM.
Chain of Tyrosine-protein kinase ABL1 (Homo sapiens) (P00519 whole entry): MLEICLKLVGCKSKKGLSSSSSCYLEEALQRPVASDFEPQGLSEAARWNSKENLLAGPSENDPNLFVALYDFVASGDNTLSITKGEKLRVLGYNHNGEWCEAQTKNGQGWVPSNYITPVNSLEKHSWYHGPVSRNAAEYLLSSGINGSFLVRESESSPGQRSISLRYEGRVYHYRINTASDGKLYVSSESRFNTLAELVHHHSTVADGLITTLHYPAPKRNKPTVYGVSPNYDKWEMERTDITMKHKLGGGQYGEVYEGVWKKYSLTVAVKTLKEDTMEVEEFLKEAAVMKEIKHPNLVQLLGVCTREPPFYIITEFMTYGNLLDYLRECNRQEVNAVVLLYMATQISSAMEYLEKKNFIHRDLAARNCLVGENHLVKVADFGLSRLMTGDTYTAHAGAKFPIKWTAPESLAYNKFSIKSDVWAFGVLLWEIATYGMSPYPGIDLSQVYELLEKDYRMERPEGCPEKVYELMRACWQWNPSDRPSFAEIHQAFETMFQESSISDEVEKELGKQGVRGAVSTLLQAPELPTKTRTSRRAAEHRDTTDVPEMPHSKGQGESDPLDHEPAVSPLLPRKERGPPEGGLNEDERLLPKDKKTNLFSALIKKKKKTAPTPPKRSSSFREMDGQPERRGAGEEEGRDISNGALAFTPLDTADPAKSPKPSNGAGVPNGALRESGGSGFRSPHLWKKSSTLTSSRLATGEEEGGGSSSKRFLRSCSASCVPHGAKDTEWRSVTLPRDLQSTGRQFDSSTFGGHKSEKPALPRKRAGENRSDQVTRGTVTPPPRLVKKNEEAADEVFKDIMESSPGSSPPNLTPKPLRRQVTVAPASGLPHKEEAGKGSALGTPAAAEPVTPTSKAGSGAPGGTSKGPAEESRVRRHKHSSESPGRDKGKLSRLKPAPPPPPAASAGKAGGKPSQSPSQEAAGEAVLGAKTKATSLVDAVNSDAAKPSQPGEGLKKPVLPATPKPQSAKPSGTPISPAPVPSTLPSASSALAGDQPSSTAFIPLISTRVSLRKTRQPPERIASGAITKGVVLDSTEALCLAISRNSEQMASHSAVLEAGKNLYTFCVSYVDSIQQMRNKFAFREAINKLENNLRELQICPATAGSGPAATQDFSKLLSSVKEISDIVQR
Data set [17] deals with Tyrosine-protein kinase BTK (Homo sapiens) (UniProt Q06187). The note with it: Compound concentration 1000.0 nM.
In data set [18] the target is Calcium/calmodulin-dependent protein kinase type IV (Homo sapiens) (UniProt Q16566). To be noted: Compound concentration 1000.0 nM.
Data set [19] has as its target Macrophage colony-stimulating factor 1 receptor (Homo sapiens) (UniProt P07333). To be noted: Compound concentration 1000.0 nM.
Data set [20] deals with Myotonin-protein kinase (Homo sapiens) (UniProt Q09013). To be noted: Compound concentration 1000.0 nM.
Data set [21] addresses Mitogen-activated protein kinase 15 (Homo sapiens) (UniProt Q8TD08). To be noted: Compound concentration 1000.0 nM.
For data set [22], the system named is Fibroblast growth factor receptor 3 (Homo sapiens), P22607 [G697C]. The note with it: Compound concentration 1000.0 nM.
Chain of Fibroblast growth factor receptor 3 (Homo sapiens), P22607 [G697C] (P22607 whole entry G697C): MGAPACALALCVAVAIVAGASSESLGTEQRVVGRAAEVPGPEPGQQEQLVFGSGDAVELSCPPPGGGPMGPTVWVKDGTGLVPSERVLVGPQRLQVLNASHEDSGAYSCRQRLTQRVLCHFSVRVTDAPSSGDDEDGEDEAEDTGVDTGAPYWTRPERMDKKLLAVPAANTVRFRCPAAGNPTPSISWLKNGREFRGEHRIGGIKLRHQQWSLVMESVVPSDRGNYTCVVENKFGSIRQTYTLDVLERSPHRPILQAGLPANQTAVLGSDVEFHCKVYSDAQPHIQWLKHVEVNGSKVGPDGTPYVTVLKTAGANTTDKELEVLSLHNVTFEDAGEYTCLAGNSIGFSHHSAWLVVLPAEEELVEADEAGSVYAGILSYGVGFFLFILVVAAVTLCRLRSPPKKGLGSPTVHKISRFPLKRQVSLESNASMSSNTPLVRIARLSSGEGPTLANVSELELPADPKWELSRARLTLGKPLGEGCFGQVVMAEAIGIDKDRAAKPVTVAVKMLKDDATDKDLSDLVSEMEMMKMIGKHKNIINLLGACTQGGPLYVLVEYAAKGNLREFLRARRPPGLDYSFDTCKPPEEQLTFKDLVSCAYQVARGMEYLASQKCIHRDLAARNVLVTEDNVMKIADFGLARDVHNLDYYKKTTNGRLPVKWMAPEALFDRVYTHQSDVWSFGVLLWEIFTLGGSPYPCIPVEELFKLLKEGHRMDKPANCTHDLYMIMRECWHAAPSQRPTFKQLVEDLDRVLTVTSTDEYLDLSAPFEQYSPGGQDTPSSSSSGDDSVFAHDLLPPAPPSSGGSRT
The target in data set [23] is Inhibitor of nuclear factor kappa-B kinase subunit epsilon (Homo sapiens) (UniProt Q14164). To be noted: Compound concentration 1000.0 nM.
Data set [24] addresses Mitogen-activated protein kinase kinase kinase 3 (Homo sapiens) (UniProt Q99759). The note with it: Compound concentration 1000.0 nM.
The target in data set [25] is Dual specificity mitogen-activated protein kinase kinase 4 (Homo sapiens) (UniProt P45985). To be noted: Compound concentration 1000.0 nM.
Data set [26] deals with Tyrosine-protein kinase Mer (Homo sapiens) (UniProt Q12866). To be noted: Compound concentration 1000.0 nM.
The subject of data set [27] is Hepatocyte growth factor receptor (Homo sapiens), P08581 [Y1235D]. To be noted: Compound concentration 1000.0 nM.
The target of data set [28] is MAP kinase-interacting serine/threonine-protein kinase 2 (Homo sapiens) (UniProt Q9HBH9). The note with it: Compound concentration 1000.0 nM.
Chain of MAP kinase-interacting serine/threonine-protein kinase 2 (Homo sapiens) (Q9HBH9 whole entry, looked up): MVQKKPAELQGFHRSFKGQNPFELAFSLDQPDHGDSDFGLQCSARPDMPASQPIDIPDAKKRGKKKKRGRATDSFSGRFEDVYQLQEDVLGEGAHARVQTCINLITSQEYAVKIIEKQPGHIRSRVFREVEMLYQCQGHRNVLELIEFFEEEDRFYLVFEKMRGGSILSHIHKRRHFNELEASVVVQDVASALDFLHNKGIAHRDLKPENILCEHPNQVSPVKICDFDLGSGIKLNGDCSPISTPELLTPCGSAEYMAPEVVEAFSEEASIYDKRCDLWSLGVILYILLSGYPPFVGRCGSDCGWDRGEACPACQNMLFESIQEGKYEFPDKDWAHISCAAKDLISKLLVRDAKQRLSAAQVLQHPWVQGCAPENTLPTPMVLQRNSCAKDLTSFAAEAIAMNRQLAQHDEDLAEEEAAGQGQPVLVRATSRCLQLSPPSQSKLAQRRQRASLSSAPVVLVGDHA
Data set [29] deals with Serine/threonine-protein kinase 38-like (Homo sapiens) (UniProt Q9Y2H1). The note with it: Compound concentration 1000.0 nM.
For data set [30], the target named is Mitogen-activated protein kinase kinase kinase 14 (Homo sapiens) (UniProt Q99558). The note with it: Compound concentration 1000.0 nM.
Data set [31] has as its target Mitogen-activated protein kinase 11 (Homo sapiens) (UniProt Q15759). The note with it: Compound concentration 1000.0 nM.
Data set [32] relates to Phosphatidylinositol 4,5-bisphosphate 3-kinase catalytic subunit alpha isoform (Homo sapiens), P42336 [Q546K]. The note with it: Compound concentration 1000.0 nM.
Data set [33] concerns the target Serine/threonine-protein kinase D3 (Homo sapiens) (UniProt O94806). The note with it: Compound concentration 1000.0 nM.
The target in data set [34] is Mitogen-activated protein kinase kinase kinase 7 (Homo sapiens) (UniProt O43318). To be noted: Compound concentration 1000.0 nM.
Chain of Mitogen-activated protein kinase kinase kinase 7 (Homo sapiens) (O43318 whole entry): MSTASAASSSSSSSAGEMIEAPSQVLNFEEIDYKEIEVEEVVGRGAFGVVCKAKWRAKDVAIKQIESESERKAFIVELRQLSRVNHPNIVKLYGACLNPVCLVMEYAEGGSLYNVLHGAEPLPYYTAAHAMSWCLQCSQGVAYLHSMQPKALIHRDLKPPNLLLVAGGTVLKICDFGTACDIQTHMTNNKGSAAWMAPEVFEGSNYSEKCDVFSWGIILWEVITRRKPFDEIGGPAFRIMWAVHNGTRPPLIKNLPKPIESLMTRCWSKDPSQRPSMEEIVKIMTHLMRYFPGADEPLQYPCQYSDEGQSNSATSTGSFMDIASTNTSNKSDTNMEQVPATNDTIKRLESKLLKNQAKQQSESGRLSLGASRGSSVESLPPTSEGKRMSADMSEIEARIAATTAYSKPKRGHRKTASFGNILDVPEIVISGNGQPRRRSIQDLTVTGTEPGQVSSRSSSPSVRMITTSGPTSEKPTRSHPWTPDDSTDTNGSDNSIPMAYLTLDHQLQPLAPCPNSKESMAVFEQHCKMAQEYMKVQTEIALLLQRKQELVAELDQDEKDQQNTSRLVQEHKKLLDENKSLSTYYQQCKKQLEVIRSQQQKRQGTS
Data set [35] concerns the target Serine/threonine-protein kinase ULK2 (Homo sapiens) (UniProt Q8IYT8). To be noted: Compound concentration 1000.0 nM.
The target in data set [36] is Serine/threonine-protein kinase WNK4 (Homo sapiens) (UniProt Q96J92). The note with it: Compound concentration 1000.0 nM.
The target in data set [37] is 5-hydroxytryptamine receptor 7 (Homo sapiens) (UniProt P34969). The note with it: Compound concentration 10.0 uM.
Chain of 5-hydroxytryptamine receptor 7 (Homo sapiens) (P34969 whole entry): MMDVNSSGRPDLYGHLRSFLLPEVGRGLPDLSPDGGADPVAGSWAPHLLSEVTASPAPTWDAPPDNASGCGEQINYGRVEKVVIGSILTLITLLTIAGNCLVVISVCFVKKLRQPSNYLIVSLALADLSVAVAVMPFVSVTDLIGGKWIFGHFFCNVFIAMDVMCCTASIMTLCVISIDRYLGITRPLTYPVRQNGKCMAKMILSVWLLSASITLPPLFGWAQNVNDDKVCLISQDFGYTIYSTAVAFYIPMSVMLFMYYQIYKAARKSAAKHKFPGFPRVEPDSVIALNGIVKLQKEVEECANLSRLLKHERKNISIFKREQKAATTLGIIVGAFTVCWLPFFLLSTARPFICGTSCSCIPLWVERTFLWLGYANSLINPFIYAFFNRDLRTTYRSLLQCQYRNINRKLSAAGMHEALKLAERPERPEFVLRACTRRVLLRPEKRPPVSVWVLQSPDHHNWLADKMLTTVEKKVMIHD
Data set [38] deals with Acetylcholine receptor, muscle-type, subunit alpha-1 (Homo sapiens) (UniProt P02708). Briefly: N (muscle-type) (h) CEREP ligand profiling. To be noted: Compound concentration 10.0 uM.
For data set [39], the target named is Sodium-dependent dopamine transporter (Homo sapiens) (UniProt Q01959). The note with it: Compound concentration 10.0 uM.

Each structure is given as a SMILES string.

Chain of Substance-P receptor (Homo sapiens) (P25103 whole entry): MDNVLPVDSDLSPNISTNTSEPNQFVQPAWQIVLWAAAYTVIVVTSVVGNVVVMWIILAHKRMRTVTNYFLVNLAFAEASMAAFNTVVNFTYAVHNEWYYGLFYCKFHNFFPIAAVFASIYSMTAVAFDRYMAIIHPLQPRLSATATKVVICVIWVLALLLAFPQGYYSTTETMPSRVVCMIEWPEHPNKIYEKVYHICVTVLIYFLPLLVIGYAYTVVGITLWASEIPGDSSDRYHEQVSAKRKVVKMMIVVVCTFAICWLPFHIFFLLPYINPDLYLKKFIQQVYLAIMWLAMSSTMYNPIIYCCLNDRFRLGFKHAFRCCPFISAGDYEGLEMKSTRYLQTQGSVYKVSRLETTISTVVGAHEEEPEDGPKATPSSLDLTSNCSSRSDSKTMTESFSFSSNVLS

As for `COc1ccc2cc(OCC3(C(=O)O)CN(C(=O)c4ccc(F)cc4)C3)ccc2c1` [PF-04418948], the inhibition (commonly the drop in the measured response relative to a control, in per cent) in data set [1] was -7%; in [2], -10%; in data set [3] it was 13%; in [4] it was -2%; in data set [5] it was -9%; in data set [6], 9%. Moreover, the inhibition in [7] was 4%; in data set [9], 11%; in data set [10] it was 14%; in [11] it was 9%; in data set [12], 1%; in data set [13], 3%. The inhibition in data set [14] was 5%; in data set [15], 3%; in data set [37] it was -9.26%; in data set [38], -10%. Besides, the inhibition at 10 µM in data set [8] is on record as 18% (not active). Besides, the residual activity is 78% in data set [16]; 84% in data set [17]; 88% in [18]; 75% in data set [19]; 76% in data set [20]; 74% in data set [21]. Besides, the residual activity in [22] is 88%; in data set [23] it was 95%; in [24] it was 97%; in data set [25], 90%; in data set [26], 80%; in data set [27], 91%. Besides, the residual activity in [28] was 96%; in data set [29], 86%; in data set [30] it was 82%; in data set [31], 78%; in data set [32], 42%; in [33], 91%. In addition, the residual activity in data set [34] was 96%; in data set [35], 89%; in [36], 79%.

Consider `O=C(c1ccc(F)cc1)N1CC(COc2ccc(Br)cc2)(C(=O)O)C1` [PF-04475866], for which the inhibition in data set [39] was 6.07%.
